Test results: PubChem BioAssay (NCI)
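Cells were grown in 96-well plates and exposed to each compound for 48 hours at five concentrations; endpoints were interpolated linearly between bracketing concentrations, or set to the highest concentration if not reached. Definition used: TGI = concentration required for complete inhibition of growth.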

What was measured:
Experiment in all cases: growth of human tumour cells (NCI), 48 h
786-0 renal = test system: 786-0 renal
A498 renal = test system: A498 renal
A549 NSCLC = test system: A549 NSCLC
ACHN renal = test system: ACHN renal
CAKI-1 renal = test system: CAKI-1 renal
CCRF-CEM leukemia = test system: CCRF-CEM leukemia
COLO 205 colon = test system: COLO 205 colon
DLD-1 colon = test system: DLD-1 colon
DMS 114 small cell lung = test system: DMS 114 small cell lung
DMS 273 small cell lung = test system: DMS 273 small cell lung
EKVX NSCLC = test system: EKVX NSCLC
HCC-2998 colon = test system: HCC-2998 colon
HCT-116 colon = test system: HCT-116 colon
HCT-15 colon = test system: HCT-15 colon
HL-60(TB) leukemia = test system: HL-60(TB) leukemia
HOP-18 NSCLC = test system: HOP-18 NSCLC
HOP-62 NSCLC = test system: HOP-62 NSCLC
HOP-92 NSCLC = test system: HOP-92 NSCLC
HT29 colon = test system: HT29 colon
IGROV1 ovarian = test system: IGROV1 ovarian
K-562 leukemia = test system: K-562 leukemia
KM12 colon = test system: KM12 colon
KM20L2 colon = test system: KM20L2 colon
LOX IMVI melanoma = test system: LOX IMVI melanoma
LXFL 529 NSCLC = test system: LXFL 529 NSCLC
M14 melanoma = test system: M14 melanoma
M19-MEL melanoma = test system: M19-MEL melanoma
MALME-3M melanoma = test system: MALME-3M melanoma
MOLT-4 leukemia = test system: MOLT-4 leukemia
NCI-H226 lung = test system: NCI-H226 lung
NCI-H23 lung = test system: NCI-H23 lung
NCI-H460 lung = test system: NCI-H460 lung
NCI-H522 lung = test system: NCI-H522 lung
OVCAR-3 ovarian = test system: OVCAR-3 ovarian
OVCAR-4 ovarian = test system: OVCAR-4 ovarian
OVCAR-5 ovarian = test system: OVCAR-5 ovarian
OVCAR-8 ovarian = test system: OVCAR-8 ovarian
RPMI-8226 leukemia = test system: RPMI-8226 leukemia
RXF 393 renal = test system: RXF 393 renal
SF-268 CNS = test system: SF-268 CNS
SF-295 CNS = test system: SF-295 CNS
SF-539 CNS = test system: SF-539 CNS
SK-MEL-2 melanoma = test system: SK-MEL-2 melanoma
SK-MEL-28 melanoma = test system: SK-MEL-28 melanoma
SK-MEL-5 melanoma = test system: SK-MEL-5 melanoma
SK-OV-3 ovarian = test system: SK-OV-3 ovarian
SN12C renal = test system: SN12C renal
SNB-19 CNS = test system: SNB-19 CNS
SNB-75 CNS = test system: SNB-75 CNS
SNB-78 CNS = test system: SNB-78 CNS
SW-620 colon = test system: SW-620 colon
TK-10 renal = test system: TK-10 renal
U251 CNS = test system: U251 CNS
UACC-257 melanoma = test system: UACC-257 melanoma
UACC-62 melanoma = test system: UACC-62 melanoma
UO-31 renal = test system: UO-31 renal
XF 498 CNS = test system: XF 498 CNS

`Nc1ncnc2c1nnn2C1C=C(CO)C(O)C1O` (configuration not stated) was tested, and the TGI (786-0 renal) was over 100 µM, the TGI (A498 renal) was over 100 µM and the TGI (A549 NSCLC) was over 100 µM. The TGI (ACHN renal) was over 100 µM, the TGI (CAKI-1 renal) was over 100 µM and the TGI (CCRF-CEM leukemia) was over 100 µM. For the same compound, the TGI (COLO 205 colon) was over 50.6 µM, the TGI (DLD-1 colon) was over 92.6 µM and the TGI (DMS 114 small cell lung) was over 86.2 µM. For the same compound, the TGI (DMS 273 small cell lung) was over 100 µM, the TGI (EKVX NSCLC) was over 100 µM and the TGI (HCC-2998 colon) was over 100 µM. For the same compound, the TGI (HCT-116 colon) was over 53.3 µM, the TGI (HCT-15 colon) was over 100 µM and the TGI (HL-60(TB) leukemia) was 28.5 µM. The TGI (HOP-18 NSCLC) was over 100 µM, the TGI (HOP-62 NSCLC) was over 100 µM and the TGI (HOP-92 NSCLC) was over 80.2 µM. The TGI (HT29 colon) was over 100 µM, the TGI (IGROV1 ovarian) was over 100 µM and the TGI (K-562 leukemia) was over 100 µM. The TGI (KM12 colon) was over 100 µM, the TGI (KM20L2 colon) was over 100 µM and the TGI (LOX IMVI melanoma) was over 55.3 µM. For the same compound, the TGI (LXFL 529 NSCLC) was over 100 µM, the TGI (M14 melanoma) was over 100 µM and the TGI (M19-MEL melanoma) was over 100 µM. It also gave a TGI (MALME-3M melanoma) of over 100 µM, a TGI (MOLT-4 leukemia) of over 100 µM and a TGI (NCI-H226 lung) of over 100 µM. The TGI (NCI-H23 lung) was over 100 µM, the TGI (NCI-H460 lung) was over 100 µM and the TGI (NCI-H522 lung) was over 100 µM. For the same compound, the TGI (OVCAR-3 ovarian) was over 100 µM, the TGI (OVCAR-4 ovarian) was over 100 µM and the TGI (OVCAR-5 ovarian) was over 100 µM. The TGI (OVCAR-8 ovarian) was over 100 µM, the TGI (RPMI-8226 leukemia) was over 62.7 µM and the TGI (RXF 393 renal) was over 100 µM. It also gave a TGI (SF-268 CNS) of over 100 µM, a TGI (SF-295 CNS) of over 100 µM and a TGI (SF-539 CNS) of over 100 µM. For the same compound, the TGI (SK-MEL-2 melanoma) was over 100 µM, the TGI (SK-MEL-28 melanoma) was over 100 µM and the TGI (SK-MEL-5 melanoma) was over 100 µM. For the same compound, the TGI (SK-OV-3 ovarian) was over 100 µM, the TGI (SN12C renal) was over 82.7 µM and the TGI (SNB-19 CNS) was over 100 µM. For the same compound, the TGI (SNB-75 CNS) was over 96.1 µM, the TGI (SNB-78 CNS) was over 100 µM and the TGI (SW-620 colon) was over 63.1 µM. The TGI (TK-10 renal) was over 100 µM, the TGI (U251 CNS) was over 100 µM and the TGI (UACC-257 melanoma) was over 100 µM. It also gave a TGI (UACC-62 melanoma) of over 100 µM, a TGI (UO-31 renal) of over 100 µM and a TGI (XF 498 CNS) of over 100 µM.
With `CC(=O)Nc1ccc(C(=O)NN2C(=O)C(Cl)C2c2ccc(O)cc2)cc1` (configuration not stated) the TGI (786-0 renal) was over 100 µM, the TGI (A498 renal) was over 100 µM and the TGI (A549 NSCLC) was over 100 µM. It also gave a TGI (ACHN renal) of over 100 µM, a TGI (CAKI-1 renal) of over 100 µM and a TGI (CCRF-CEM leukemia) of over 100 µM. It also gave a TGI (COLO 205 colon) of over 100 µM, a TGI (DLD-1 colon) of over 100 µM and a TGI (DMS 273 small cell lung) of over 100 µM. The TGI (EKVX NSCLC) was over 100 µM, the TGI (HCT-116 colon) was over 100 µM and the TGI (HCT-15 colon) was over 100 µM. It also gave a TGI (HL-60(TB) leukemia) of over 100 µM, a TGI (HOP-62 NSCLC) of over 100 µM and a TGI (HT29 colon) of over 100 µM. For the same compound, the TGI (IGROV1 ovarian) was over 100 µM, the TGI (K-562 leukemia) was over 100 µM and the TGI (KM20L2 colon) was over 100 µM. It also gave a TGI (LOX IMVI melanoma) of over 100 µM, a TGI (LXFL 529 NSCLC) of over 100 µM and a TGI (M14 melanoma) of over 100 µM. It also gave a TGI (M19-MEL melanoma) of over 100 µM, a TGI (MALME-3M melanoma) of over 100 µM and a TGI (MOLT-4 leukemia) of over 100 µM. It also gave a TGI (NCI-H226 lung) of over 100 µM, a TGI (NCI-H460 lung) of over 100 µM and a TGI (NCI-H522 lung) of over 100 µM. The TGI (OVCAR-3 ovarian) was over 100 µM, the TGI (OVCAR-4 ovarian) was over 100 µM and the TGI (OVCAR-5 ovarian) was over 100 µM. It also gave a TGI (OVCAR-8 ovarian) of over 100 µM, a TGI (RXF 393 renal) of over 100 µM and a TGI (SF-268 CNS) of over 100 µM. It also gave a TGI (SF-295 CNS) of over 100 µM, a TGI (SF-539 CNS) of over 100 µM and a TGI (SK-MEL-2 melanoma) of over 100 µM. The TGI (SK-MEL-28 melanoma) was over 100 µM, the TGI (SK-MEL-5 melanoma) was over 100 µM and the TGI (SK-OV-3 ovarian) was over 100 µM. The TGI (SN12C renal) was over 100 µM, the TGI (SNB-19 CNS) was over 100 µM and the TGI (SNB-75 CNS) was over 100 µM. For the same compound, the TGI (SNB-78 CNS) was over 100 µM, the TGI (SW-620 colon) was over 100 µM and the TGI (TK-10 renal) was over 100 µM. It also gave a TGI (U251 CNS) of over 100 µM, a TGI (UACC-257 melanoma) of over 100 µM and a TGI (UACC-62 melanoma) of over 100 µM. It also gave a TGI (UO-31 renal) of over 100 µM and a TGI (XF 498 CNS) of over 100 µM.
